Source: patent US20050004014A1, “New compound” (FUJISAWA PHARMACEUTICAL CO., LTD., priority 2003, published 2005)

System: Candida albicans FP-633
Assay type: cell-based
Conditions: FP-633, 24 h, pH 7.3
Experimental: In vitro antimicrobial activity of the object compound of Examples 1, 2, 3 and 4 disclosed later was determined by MICS in mouse serum as described below. The MICS in mouse serum were determined by the microdilution method using ICR mouse serum buffered with 20 mM HEPES buffer (pH 7.3) as a test medium. Inoculum suspension of 10^6 cells/ml were prepared by a hemocytometric procedure and diluted to obtain an inoculum size of approximately 1.0×10^3 cells/ml. Microplates were incubated at 37° C. for 24 hours in 5% CO2. The MICS were defined as the lowest concentrations at which no visible growth was observed.

Compound | MIC [µg/mL]
COc1cc(C[C@@H](O)[C@@H]2NC(=O)[C@@H]3C[C@@H](O)CN3C(=O)[C@H]([C@@H](C)O)NC(=O)[C@@H](NCc3ccc(-c4nnc(-c5ccc(N6CCC(OC)(C7CCCCC7)CC6)cc5)s4)cc3)C[C@@H](O)CNC(=O)[C@@H]3[C@@H](O)[C@@H](C)CN3C(=O)[C@H]([C@H](O)CCNC(CO)CO)NC2=O)ccc1O [Example 3] | <0.15
COc1cc(C[C@@H](O)[C@@H]2NC(=O)[C@@H]3C[C@@H](O)CN3C(=O)[C@H]([C@@H](C)O)NC(=O)[C@@H](NCc3ccc(-c4nnc(-c5ccc(N6CCN(C7CCCCC7)CC6)cc5)s4)cc3)C[C@@H](O)CNC(=O)[C@@H]3[C@@H](O)[C@@H](C)CN3C(=O)[C@H]([C@H](O)CCNC(CO)CO)NC2=O)ccc1O [Example 4] | <0.15
COc1cc(C[C@@H](O)[C@@H]2NC(=O)[C@@H]3C[C@@H](O)CN3C(=O)[C@H]([C@@H](C)O)NC(=O)[C@@H](NCc3ccc(-c4nnc(-c5ccc(N6CCN([C@H]7CC[C@@H](C)CC7)CC6)cc5)s4)cc3)C[C@@H](O)CNC(=O)[C@@H]3[C@@H](O)[C@@H](C)CN3C(=O)[C@H]([C@H](O)CCN)NC2=O)ccc1O [Example 1] | <0.15
COc1cc(C[C@@H](O)[C@@H]2NC(=O)[C@@H]3C[C@@H](O)CN3C(=O)[C@H]([C@@H](C)O)NC(=O)[C@@H](NCc3ccc(-c4ccc(N5CCN([C@H]6CC[C@](OC)(C7CCCCC7)CC6)CC5)cc4)cc3)C[C@@H](O)CNC(=O)[C@@H]3[C@@H](O)[C@@H](C)CN3C(=O)[C@H]([C@H](O)CCN)NC2=O)ccc1O [Example 2] | <0.15
